Experimental data as given in patent US20240133870A1, “COMBINED TREATMENT FOR CANCER” (Yeda Research and Development Co. Ltd., priority 2021, published 2024).

Key:
[1] = test system: UACC62 melanoma BRAF (V600E) cell line; test: Human and mouse factor mediated resistance to vemurafenib in vitro; format: cell-based; details: for factor-mediated resistance to vemurafenib: FGF2 25 ng/ml
Method: P-value of the rScore abrogation following the addition of FGFRi was calculated by two-sided t-test. ** P<0.01.

human NSCLC tumor biopsy = test: EVOC of NSCLC patient biopsies, viability; format: cell-based; details: treatment-naïve patient; osimertinib 4 μM alone
Text: Error bars represent standard error. […] Scale bar represents 50 μm. […] Error bars represent standard error. […] Scale bar represents 50 μm.
Scale bar represents 50 μm. […] Scale bar represents 50 μm. […] Scale bar represents 50 μm.

[2] = test system: SK-MEL-5 BRAF (V600E) melanoma cells; test: Co-culture of stroma (WI-38 or HS-5) and cancer cells; format: cell-based, human
Method: SK-MEL-5 BRAF (V600E) melanoma cells were co-cultured with the lung-derived stromal cell line WI-38 or with the bone marrow-derived stromal cell line HS-5 with or without vemurafenib (4 μM). […] Vehicle—DMSO, EGFRi—gefitinib (0.1 μM), EGFRi/HER2i—lapatinib (10 nM), METi—crizotinib (0.1 μM), FGFRi—AZD4547 (50 nM), NFkB/TNFRi—CAPE (10 μM), TGFBRi-LY2109761 (0.5 μM), gp130i—SC144 (1 nM). […] Error bars represent standard error. […] Error bars represent standard error. […] Human BRAF (V600E) melanoma cell lines UACC62 or G361 were used to generate xenograft tumor models in various tissues of nude mice. When tumors reached a volume of 500-700 μmm^3, they were resected, sliced, and cultured ex-vivo in the presence of different drug combinations or DMSO control. Following 4 days of drug treatment, slices were fixed, embedded in paraffin blocks, and subjected to immunohistochemistry, using anti-pERK antibody, or to immuno-fluorescence, using anti-pFGFR1 antibody. BRAFi (vemurafenib, 4 μM), FGFRi (AZD4547, 2 μM). Scale bar represents 50 μm.
Four hours later, the melanoma BRAF (V600E) mutated cell line SK-MEL-5 was seeded on top of the stromal cells at a concentration of 1700 cells per well, or seeded without stroma. […] Concentrations of the inhibitors were based on dose curves with SK-MEL-5. For each inhibitor of potential mechanism of resistance, the maximal concentration with minimal effect (toxicity) on cell growth was selected (Cmax).
To compare rScore value of stroma-mediated resistance with or without a given inhibitor, the rScore values of each inhibitor in the presence of stroma, was calculated. As a reduction in rScore may stem from mere toxicity of the inhibitor, rather than the abrogation of the stroma mediated resistance, each inhibitor rScore was penalized by its toxicity.
rScoreinhibitor=rScoreinhibitor+(rScorestroma−rScoreinhibitor)*tOxicitY(Cmax)inhibitor

[3] = test system: BRAF (V600E) melanoma cell lines; test: High-throughput secretome screen of GFP-labeled cells (rScore, bScore, ranks); format: cell-based, human; details: for effect on resistance to BRAF/MEK inhibition (rScore sorted, 297 factors): UACC62 cell line
Method: Cell lines—All cell lines (Table 1 hereinbelow) were cultured in DMEM supplemented with 100 units/ml Penicillin and Streptomycin, 2 μmM Glutamine, 1 μmM Pyruvate and 10% FCS, and maintained in a humidified incubator at 37° C. and 5% CO2. Cells were routinely tested for Mycoplasma contamination by PCR. To generate stable cell lines constitutively expressing GFP, cells were infected with lentivirus bearing plasmid pLEX_TRC206 and sorted by FACS to enrich for GFP positive population. For the in-vitro experiments, human cancer cell lines which constitutively expressed GFP were treated with various cytotoxic and targeted drugs (see Table 1 hereinbelow); and the effect of different secreted factors (Table 2 hereinbelow) on the innate resistance to a drug based on the cells' GFP level was determined.
High throughput in-vitro screens—For high-throughput screens or drug dose curves, cells were counted by Vi-Cell XR (Beckman coulter). Cells were seeded on 384 wells plates (Corning, 3712) using the EL406 washer dispenser (BioTek). Liquid handling of medium and drugs was effected by CyBi (WellFlex vario, CyBio). GFP fluorescence of cells was measured at 477/517 nm (excitation/emission) using Cytation3 (BioTek). Due to fluorescence reading bias at plate margins and corners, these margins were discarded for analysis.
High-throughput secretome screens—To screen for the effect of secreted factors on the response of cell lines to different drugs, the following seven-days procedure was performed. On day 0, GFP expressing cells were seeded at 1500-2000 cells per well on 384-wells plates (Corning, 3712), depending on the cell line's proliferation rate. Each plate was seeded with one cell line. At day 1, each plate was treated with the secretome library (Table 2 hereinabove), one well per factor. Immediately afterwards, each plate was treated either with a drug (Table 1 hereinabove) at the EC90 concentration or with DMSO control. The CyBi liquid handler was used to treat each plate with a drug and the secretome library as well as to replace the medium, drug and secreted factors following 3 days of incubation (day 4). Cell fluorescence was read at days 1, 4 and 7 by Cytation3, and for some of the experiments at day 6 as well. Wells of interest were imaged at day 7 using the Operetta (PerkinElmer).
(2) Based on observations, the plate area spanning rows 4-13 and columns 4-21 was hardly affected by plate margins biases. This area is referred to herein as plate core. To control for row specific and column specific biases, plate outliers (Zscore>4 or Zscore<−4) and edges were masked. Next, to capture row and column (col) biases for the i-th row and the j-th column, the bias factor was calculated:
Upon QC completion, 199 experiment plates and 79 control (DMSO) plates were left for further analysis. • 4—Scoring methods-A GFP value for wells without secretome factors was obtained by averaging over the plate internal control wells. Those wells contained the solvents used in the secretome library. pScore: The effect of the secreted factors on proliferation under DMSO was evaluated using pScore (proliferation score). Values were given in percent units.
rScore: The effect of the secreted factors on resistance to anti-cancer drugs was evaluated using rScore (rescue score). rScore was assigned to a given factor under two conditions: • 1. drug effect was >30% (residual drug growth<0.7) • 2. proliferation ratio between factor treated and untreated cells in the presence of drug was higher than one:
rSscore=S−S*residual drug growth
Based on manual inspection of the rScore distribution across the data, the threshold for a potential effect on drug resistance was set to 0.2 (FIGS. 8A-D).
(*) Negative values were considered as zero. […] Groups with less than 4 experiments were discarded, finally resulting in 13 groups of experiments (FIG. 1E). […]

[4] = 80 experiments of BRAF (V600E) mutated melanoma cell lines treated with BRAF/MEK inhibitors
[5] = 80 experiments of BRAF (V600E) mutated melanoma cell lines treated with BRAF/MEK inhibitors, in multiple experiments
[6] = vemurafenib 2 μM, mTNF 50 ng/ml

With `FC(F)(F)c1nnc2c(Sc3ccccc3)nc3ccc(Cl)cc3n12` [R7050, reference compound] the “toxicity to UACC62” value ([1]; all concentrations tested) was “not toxic” and the “abrogation of mouse TNF mediated resistance” value ([1]; vemurafenib 2 μM, mTNF 50 ng/ml, range of concentrations) was “does not abrogate the mouse TNF mediated resistance”.

With `C=CC(=O)Nc1cc(Nc2nccc(-c3cn(C)c4ccccc34)n2)c(OC)cc1N(C)CCN(C)C` [osimertinib] the cancer cell viability (human NSCLC tumor biopsy) was “did not affect cancer cell viability”.

With `CCCS(=O)(=O)Nc1ccc(F)c(C(=O)c2c[nH]c3ncc(-c4ccc(Cl)cc4)cc23)c1F` [vemurafenib] the “rScore of stroma-conferred resistance” value ([2]; co-culture with bone-marrow derived stromal cell line HS-5) was over 0.2 and the “rScore of stroma-conferred resistance” value ([2]; co-culture with lung-derived stromal cell line WI-38) was over 0.2.

In the case of “FGF2: human FGF2, recombinant secreted factor, FGFR ligand”, the “rank by rScore values (resistance)” value [3, 4] is reported as 3, the rScore [3, 5] is reported as “above 0.2” and the “effect on resistance to BRAF/MEK inhibition (rScore sorted, 297 factors)” value [3] is reported as “strongest effect on resistance”. For the same molecule, the “factor-mediated resistance to vemurafenib” value [1, 6] was “mediated resistance to vemurafenib”.

B1: CCL4: secreted factor of the secretome library (protein, UniProt P13236 24-92, looked up)
C-C motif chemokine 4: APMGSDPPTACCFSYTARKLPRNFVVDYYETSSLCSQPAVVFQTKRSKQVCADPSESWVQEYVYDLELN
B1 was tested, and the “effect on resistance to BRAF/MEK inhibition (rScore sorted, 297 factors)” value [3] was “strongest effect on resistance”.

B2: ACHE: acetylcholinesterase (protein, UniProt P22303 32-614, looked up)
Acetylcholinesterase: EGREDAELLVTVRGGRLRGIRLKTPGGPVSAFLGIPFAEPPMGPRRFLPPEPKQPWSGVVDATTFQSVCYQYVDTLYPGFEGTEMWNPNRELSEDCLYLNVWTPYPRPTSPTPVLVWIYGGGFYSGASSLDVYDGRFLVQAERTVLVSMNYRVGAFGFLALPGSREAPGNVGLLDQRLALQWVQENVAAFGGDPTSVTLFGESAGAASVGMHLLSPPSRGLFHRAVLQSGAPNGPWATVGMGEARRRATQLAHLVGCPPGGTGGNDTELVACLRTRPAQVLVNHEWHVLPQESVFRFSFVPVVDGDFLSDTPEALINAGDFHGLQVLVGVVKDEGSYFLVYGAPGFSKDNESLISRAEFLAGVRVGVPQVSDLAAEAVVLHYTDWLHPEDPARLREALSDVVGDHNVVCPVAQLAGRLAAQGARVYAYVFEHRASTLSWPLWMGVPHGYEIEFIFGIPLDPSRNYTAEEKIFAQRLMRYWANFARTGDPNEPRDPKAPQWPPYTAGAQQYVSLDLRPLEVRRGLRAQACAFWNRFLPKLLSATDTLDEAERQWKAEFHRWSSYMVHWKNQFDHYSKQDRCSDL
For B2, the “synergism with BRAF and MEK inhibition” value ([3]; multiple melanoma cell lines) was “synergistic effect”.

B3: mFGF2: mouse FGF2 (protein, UniProt P15655 10-154, looked up)
Fibroblast growth factor 2: PALPEDGGAAFPPGHFKDPKRLYCKNGGFFLRIHPDGRVDGVREKSDPHVKLQLQAEERGVVSIKGVCANRYLAMKEDGRLLASKCVTEECFFFERLESNNYNTYRSRKYSSWYVALKRTGQYKLGSKTGPGQKAILFLPMSAKS
With B3 the “factor-mediated resistance to vemurafenib” value [1, 6] was “mediated resistance to vemurafenib”.

B4: LTA: lymphotoxin alpha (protein, UniProt P01374 35-205, looked up)
Lymphotoxin-alpha: LPGVGLTPSAAQTARQHPKMHLAHSTLKPAAHLIGDPSKQNSLLWRANTDRAFLQDGFSLSNNSLLVPTSGIYFVYSQVVFSGKAYSPKATSSPLYLAHEVQLFSSQYPFHVPLLSSQKMVYPGLQEPWLHSMYHGAAFQLTQGDQLSTHTDGIPHLVLSPSTVFFGAFAL
In the case of B4, the “effect on resistance to BRAF/MEK inhibition (rScore sorted, 297 factors)” value [3] is reported as “strongest effect on resistance”.

B5: IL1A: secreted factor of the secretome library (protein, UniProt P01583 113-271, looked up)
Interleukin-1 alpha: SAPFSFLSNVKYNFMRIIKYEFILNDALNQSIIRANDQYLTAAALHNLDEAVKFDMGAYKSSKDDAKITVILRISKTQLYVTAQDEDQPVLLKEMPEIPKTITGSETNLLFFWETHGTKNYFTSVAHPNLFIATKQDYWVCLAGGPPSITDFQILENQA
In the case of B5, the “effect on resistance to BRAF/MEK inhibition (rScore sorted, 297 factors)” value [3] is reported as “strongest effect on resistance”.

B6: TGFB3: Transforming Growth Factor Beta 3 (protein, UniProt P10600 301-412, looked up)
Transforming growth factor …: ALDTNYCFRNLEENCCVRPLYIDFRQDLGWKWVHEPKGYYANFCSGPCPYLRSADTTHSTVLGLYNTLNPEASASPCCVPQDLEPLTILYYVGRTPKVEQLSNMVVKSCKCS
B6 was tested, and the “rank by bScore values (synergism)” value [3, 4] was −3 and the bScore [3, 5] was “below −0.15”.
